Test results published in PMC12357248, “Selectively targeting BCL6 using a small-molecule inhibitor is a potential therapeutic strategy for glioblastoma” (Genes & Diseases, 2025).

Experiments:
eGFP-BCL6 (FL) = target: T1, eGFP-BCL6 (FL) (Homo sapiens, UniProt P41182); experiment: BCL6-eGFP-mCherry stability reporter in HEK293T cells; format: cell-based; conditions: 1 μM
T1 construct: a gene encoding the full-length BCL6 protein fused to eGFP; expressed in transfected cells; host or cells: HEK293T

[1] = target: BCL6^BTB/SMRT interaction (Homo sapiens, UniProt P41182); experiment: HTRF assay, BCL6-BTB/SMRT interaction; format: binding
BCL6^BTB = target: T2, BCL6^BTB (Homo sapiens, UniProt P41182); experiment: Luciferase reporter assay, BCL6-BTB-mediated transcriptional repression; format: cell-based; conditions: even at 20 μM
T2 construct: expressed in transfected cells

U251 = experiment: MTS cell viability assay; format: cell-based; conditions: Homo sapiens, U-251
Description: (§1) Cell viability was tested by MTS assay (Promega, USA). 8000 cells were seeded in a 96-well plate and then treated with compounds for 72 h, followed by the addition of 20 μL of MTS and incubation at 37 °C for 2–3 h. Absorbance at 490 nm is measured with the SpectraMax 190 plate reader, and the IC50 value is calculated by GraphPad Prism. In the drug combination assay, combination index (CI) values were calculated using CalcuSyn software. A CI value greater than 1 has a drug antagonistic effect, and a value less than 1 has a synergistic effect.

U87-MG = experiment: MTS cell viability assay; format: cell-based; conditions: Homo sapiens, U-87 MG
Description: as §1

SF268 = experiment: MTS cell viability assay; format: cell-based; conditions: Homo sapiens, SF-268
Description: as §1

BCL6 = experiment: Western blotting of BCL6 after TMZ treatment; format: cell-based; conditions: U251, SF268, U87-MG, 24 h
Description: Cell lines were treated with drugs, and tumor tissues were collected in a Ripa lysis buffer. Western blotting was performed using antibodies against BCL6 (14895S, Cell Signaling Technology), PARP (poly(ADP-Ribose) polymerase; 9532S, Cell Signaling Technology), γH2AX (phosphorylated form of H2A.X variant histone; 9718S, Cell Signaling Technology), phospho-ERK (4370S, Cell Signaling Technology), ERK (extracellular signal-regulated kinase; 4695T, Cell Signaling Technology), phospho-AKT (4060S, Cell Signaling Technology), AKT (9272S, Cell Signaling Technology), GAPDH (AB0036, ABWAYS), BCL2 (T40056F, ABWAYS), c-MYC (CY5150, ABWAYS).

U87-MG-Luc xenograft = experiment: Intracranial (orthotopic) U87-MG-Luc GBM xenograft; format: in vivo, BALB/c nude mice; conditions: TMZ 5 mg/kg, YK01 12.5 mg/kg, intraperitoneally
Text: An orthotopic U87-MG GBM-bearing mouse model of BALB/c nude mice was created. Five microlitres of U87-MG-Luc cells (1 × 10^5 cells) were implanted into the left striatum of anaesthetized animals. The burr hole was then filled with bone wax, and the scalp was closed with tissue glue. To assess the growth of the glioma, bioluminescence imaging (in vivo imaging system, Lumina III) was used to determine its size. […]

CNC(=O)COc1cc2cc(Nc3nc(N4C[C@H](C)C[C@H](C)C4)ncc3Cl)ccc2n(C)c1=O [BI3802]
effect on eGFP-BCL6 (FL) reporter (eGFP-BCL6 (FL)): degradation | IC50 [1]: 0.0027 µM | effect on BCL6^BTB (BCL6^BTB): little effect

O=C(O)CCN1C(=O)/C(=C2/C(=O)Nc3ccc(Cl)cc32)SC1=S [FX1]
IC50 (U251): 37.4 ± 1.41 µM | IC50 (U87-MG): 32 ± 1.12 µM | IC50 (SF268): 43.9 ± 1.23 µM

Cn1nnc2c(C(N)=O)ncn2c1=O [TMZ, temozolomide]
BCL6 expression (BCL6): up-regulated | U87-MG-luci xenograft growth (bioluminescence) (U87-MG-Luc xenograft): improved
